Reference: patent publication US20190112317A1, “ACTIVATORS OF AUTOPHAGIC FLUX AND PHOSPHOLIPASE D AND CLEARANCE OF PROTEIN AGGREGATES INCLUDING TAU AND TREATMENT OF PROTEINOPATHIES” (The Trustees of Columbia University in the City of New York, priority 2015, published 2019)

Assay: Photodiode array (PDA) detection of compound in mouse brain
Type: in vivo
Conditions: PDA spectrum, FIG. 1
Description: FIG. 1 is a graph showing a photodiode array (PDA) spectrum of WHYKD8 in mouse brain.
A photodiode array (PDA) was used to detect WHYKD8 in mouse brain (FIG. 1).

Question: With Oc1ccc(CCNc2ncnc3ccc(Cl)cc23)cc1 [WHYKD8] as the molecule, how does the “Detection in mouse brain” value read?
Answer: The value was “readily detected”.
